# In article PMC12136037, “Type II kinase inhibitors that target Parkinson’s disease–associated LRRK2” (Science Advances, 2025):
# Values joined by “and” are separate entries in the source; they are usually repeats but may differ in a detail not shown here. Identical values can stand only once. Like-named read-outs stand apart in the source and are kept apart here.
# Legend:
# [1] = molecular target: T1, ~100 representative kinases (Homo sapiens, UniProt Q9BVS4); assay: DSF 100 kinase selectivity screen; format: binding; conditions: Protein RIOK2; DSF; average of three replicates;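 note: compound tested at 20 µM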
# T1 construct: Recombinant protein kinase domains with a concentration of 2 μM
# Outline: (§1)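 Each kinase domain, at 2 μM, is mixed with 20 μM test compound and SYPRO Orange in Hepes (20 mM, pH 7.5) with 500 mM NaCl. Temperature is then raised at 3°C/min and fluorescence-monitored unfolding yields the melting temperature change, ΔTm in degrees Celsius.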
# [2] = molecular target: T2, ~100 representative kinases (Homo sapiens, UniProt Q9UK32); assay: DSF 100 kinase selectivity screen; format: binding; conditions: Protein RPS6KA6; DSF; average of three replicates;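 note: compound tested at 20 µM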
# T2 construct: Recombinant protein kinase domains with a concentration of 2 μM
# Outline: as §1
# 350 wild-type kinases [3] = molecular target: T3, 350 wild-type kinases (Homo sapiens, UniProt O00311); assay: 33PanQinase kinome-wide selectivity profile (Reaction Biology); format: biochemical; conditions: kinase CDC7/DBF4, ATP 0,1 µM, singlicate
# T3 construct: purchased Reaction Biology (assay service)
# Description: (§2) Compound RN341 was tested at two concentrations of 1 and 10 μM against a panel of 350 wild-type kinases in the ^33PanQinase assay. The assay was performed by Reaction Biology (www.reactionbiology.com/services/kinase-assays/kinase-panel-screening/).
# 350 wild-type kinases [4] = molecular target: T4, 350 wild-type kinases (Homo sapiens, UniProt P10398, Y301D/Y302D); assay: as above; format: biochemical; conditions: kinase ARAF YDYD (constitutively active variant), ATP 1 µM, singlicate
# T4 construct: purchased Reaction Biology (assay service)
# Description: as §2
# 350 wild-type kinases [5] = molecular target: T5, 350 wild-type kinases (Homo sapiens, UniProt P21127); assay: as above; format: biochemical; conditions: kinase CDK11B/CycK, ATP 0,1 µM, singlicate
# T5 construct: purchased Reaction Biology (assay service)
# T5 sequence (P21127 whole entry): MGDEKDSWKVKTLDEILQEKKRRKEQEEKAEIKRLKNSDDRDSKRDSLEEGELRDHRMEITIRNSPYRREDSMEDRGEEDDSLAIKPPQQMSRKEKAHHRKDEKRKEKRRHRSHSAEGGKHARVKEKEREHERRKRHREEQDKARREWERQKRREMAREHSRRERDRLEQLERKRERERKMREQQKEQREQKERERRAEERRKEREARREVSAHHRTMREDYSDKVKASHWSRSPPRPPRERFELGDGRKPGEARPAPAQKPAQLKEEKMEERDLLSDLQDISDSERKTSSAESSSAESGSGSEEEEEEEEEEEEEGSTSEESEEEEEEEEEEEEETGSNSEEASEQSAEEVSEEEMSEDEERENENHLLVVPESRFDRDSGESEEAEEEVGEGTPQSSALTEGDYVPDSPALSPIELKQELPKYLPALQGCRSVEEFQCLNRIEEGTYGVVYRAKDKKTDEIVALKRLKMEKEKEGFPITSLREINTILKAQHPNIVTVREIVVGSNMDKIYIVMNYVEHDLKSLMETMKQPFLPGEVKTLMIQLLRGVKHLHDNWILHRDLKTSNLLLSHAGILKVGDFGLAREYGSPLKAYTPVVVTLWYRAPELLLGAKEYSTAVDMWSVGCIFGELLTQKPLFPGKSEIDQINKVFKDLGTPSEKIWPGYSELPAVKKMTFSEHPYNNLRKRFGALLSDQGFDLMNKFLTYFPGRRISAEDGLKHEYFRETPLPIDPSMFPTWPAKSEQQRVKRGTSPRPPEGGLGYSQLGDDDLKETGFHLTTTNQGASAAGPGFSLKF
# Description: as §2
# 350 wild-type kinases [6] = molecular target: T6, 350 wild-type kinases (Homo sapiens, UniProt P49760); assay: as above; format: biochemical; conditions: kinase CLK2, ATP 0,3 µM, singlicate
# T6 construct: purchased Reaction Biology (assay service)
# T6 sequence (P49760 whole entry): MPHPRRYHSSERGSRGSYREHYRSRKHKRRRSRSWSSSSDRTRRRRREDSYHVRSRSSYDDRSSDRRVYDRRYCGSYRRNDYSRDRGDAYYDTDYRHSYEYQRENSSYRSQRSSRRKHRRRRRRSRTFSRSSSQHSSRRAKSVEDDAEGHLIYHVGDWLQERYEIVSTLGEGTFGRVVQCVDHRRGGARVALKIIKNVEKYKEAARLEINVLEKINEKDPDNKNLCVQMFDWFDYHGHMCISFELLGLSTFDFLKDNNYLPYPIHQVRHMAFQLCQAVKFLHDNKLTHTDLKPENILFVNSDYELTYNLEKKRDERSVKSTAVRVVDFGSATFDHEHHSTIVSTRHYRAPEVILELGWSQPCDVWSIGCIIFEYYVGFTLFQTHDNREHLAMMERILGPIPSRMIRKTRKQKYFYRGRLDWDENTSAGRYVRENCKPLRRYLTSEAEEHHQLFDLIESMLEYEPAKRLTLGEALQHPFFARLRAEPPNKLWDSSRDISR
# Description: as §2
# 350 wild-type kinases [7] = molecular target: T7, 350 wild-type kinases (Homo sapiens, UniProt Q00535); assay: as above; format: biochemical; conditions: singlicate; for Residual activity (% of control), CDK5/p25NCK: kinase CDK5/p25NCK, ATP 0,3 µM; for Residual activity (% of control), CDK5/p35NCK: kinase CDK5/p35NCK, ATP 0,1 µM
# T7 construct: purchased Reaction Biology (assay service)
# T7 sequence (Q00535 whole entry): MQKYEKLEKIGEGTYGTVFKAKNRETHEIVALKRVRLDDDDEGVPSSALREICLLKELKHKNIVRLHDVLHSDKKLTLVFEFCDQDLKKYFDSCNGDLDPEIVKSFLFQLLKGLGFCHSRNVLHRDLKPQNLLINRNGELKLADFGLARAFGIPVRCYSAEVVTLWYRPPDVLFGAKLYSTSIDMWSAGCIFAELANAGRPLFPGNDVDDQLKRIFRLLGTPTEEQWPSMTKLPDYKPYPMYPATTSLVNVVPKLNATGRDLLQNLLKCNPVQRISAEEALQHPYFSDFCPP
# Description: as §2
# 350 wild-type kinases [8] = molecular target: T8, 350 wild-type kinases (Homo sapiens, UniProt Q13554); assay: as above; format: biochemical; conditions: kinase CAMK2B, ATP 3 µM, singlicate
# T8 construct: purchased Reaction Biology (assay service)
# Description: as §2
# 350 wild-type kinases [9] = molecular target: T9, 350 wild-type kinases (Homo sapiens, UniProt Q13555); assay: as above; format: biochemical; conditions: kinase CAMK2G, ATP 1 µM, singlicate
# T9 construct: purchased Reaction Biology (assay service)
# T9 sequence (Q13555 whole entry): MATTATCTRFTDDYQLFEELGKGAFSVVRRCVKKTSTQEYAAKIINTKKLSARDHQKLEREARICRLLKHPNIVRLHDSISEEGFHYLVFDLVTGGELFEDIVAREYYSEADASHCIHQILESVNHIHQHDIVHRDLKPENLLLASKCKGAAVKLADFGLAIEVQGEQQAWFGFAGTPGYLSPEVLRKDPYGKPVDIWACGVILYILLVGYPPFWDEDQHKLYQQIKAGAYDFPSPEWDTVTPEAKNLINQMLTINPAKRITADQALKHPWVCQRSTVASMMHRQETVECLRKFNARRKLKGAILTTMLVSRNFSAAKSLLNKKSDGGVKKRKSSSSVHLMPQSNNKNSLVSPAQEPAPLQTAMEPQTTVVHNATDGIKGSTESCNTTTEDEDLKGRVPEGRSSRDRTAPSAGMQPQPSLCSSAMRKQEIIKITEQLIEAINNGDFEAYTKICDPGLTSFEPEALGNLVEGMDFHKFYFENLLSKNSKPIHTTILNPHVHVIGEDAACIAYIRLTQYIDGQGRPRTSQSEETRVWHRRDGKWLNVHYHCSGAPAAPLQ
# Description: as §2
# 350 wild-type kinases [10] = molecular target: T10, 350 wild-type kinases (Homo sapiens, UniProt Q15131); assay: as above; format: biochemical; conditions: kinase CDK10/CycQ, ATP 3 µM, singlicate
# T10 construct: purchased Reaction Biology (assay service)
# Description: as §2
# 350 wild-type kinases [11] = molecular target: T11, 350 wild-type kinases (Homo sapiens, UniProt Q5S007); assay: as above; format: biochemical; conditions: 1 and 10 μM; authors think kinase was inactive in panel
# T11 construct: purchased Reaction Biology (assay service)
# Description: as §2
# 350 wild-type kinases [12] = molecular target: T12, 350 wild-type kinases (Homo sapiens, UniProt Q8TDC3); assay: as above; format: biochemical; conditions: kinase BRSK1, ATP 1 µM, singlicate
# T12 construct: purchased Reaction Biology (assay service)
# Description: as §2
# 350 wild-type kinases [13] = molecular target: T13, 350 wild-type kinases (Homo sapiens, UniProt Q9HAZ1); assay: as above; format: biochemical; conditions: kinase CLK4, ATP 0,1 µM, singlicate
# T13 construct: purchased Reaction Biology (assay service)
# Description: as §2
# 350 wild-type kinases [14] = molecular target: T14, 350 wild-type kinases (Homo sapiens, UniProt Q9Y5S2); assay: as above; format: biochemical; conditions: kinase CDC42BPB, ATP 0,1 µM, singlicate
# T14 construct: purchased Reaction Biology (assay service)
# T14 sequence (Q9Y5S2 whole entry): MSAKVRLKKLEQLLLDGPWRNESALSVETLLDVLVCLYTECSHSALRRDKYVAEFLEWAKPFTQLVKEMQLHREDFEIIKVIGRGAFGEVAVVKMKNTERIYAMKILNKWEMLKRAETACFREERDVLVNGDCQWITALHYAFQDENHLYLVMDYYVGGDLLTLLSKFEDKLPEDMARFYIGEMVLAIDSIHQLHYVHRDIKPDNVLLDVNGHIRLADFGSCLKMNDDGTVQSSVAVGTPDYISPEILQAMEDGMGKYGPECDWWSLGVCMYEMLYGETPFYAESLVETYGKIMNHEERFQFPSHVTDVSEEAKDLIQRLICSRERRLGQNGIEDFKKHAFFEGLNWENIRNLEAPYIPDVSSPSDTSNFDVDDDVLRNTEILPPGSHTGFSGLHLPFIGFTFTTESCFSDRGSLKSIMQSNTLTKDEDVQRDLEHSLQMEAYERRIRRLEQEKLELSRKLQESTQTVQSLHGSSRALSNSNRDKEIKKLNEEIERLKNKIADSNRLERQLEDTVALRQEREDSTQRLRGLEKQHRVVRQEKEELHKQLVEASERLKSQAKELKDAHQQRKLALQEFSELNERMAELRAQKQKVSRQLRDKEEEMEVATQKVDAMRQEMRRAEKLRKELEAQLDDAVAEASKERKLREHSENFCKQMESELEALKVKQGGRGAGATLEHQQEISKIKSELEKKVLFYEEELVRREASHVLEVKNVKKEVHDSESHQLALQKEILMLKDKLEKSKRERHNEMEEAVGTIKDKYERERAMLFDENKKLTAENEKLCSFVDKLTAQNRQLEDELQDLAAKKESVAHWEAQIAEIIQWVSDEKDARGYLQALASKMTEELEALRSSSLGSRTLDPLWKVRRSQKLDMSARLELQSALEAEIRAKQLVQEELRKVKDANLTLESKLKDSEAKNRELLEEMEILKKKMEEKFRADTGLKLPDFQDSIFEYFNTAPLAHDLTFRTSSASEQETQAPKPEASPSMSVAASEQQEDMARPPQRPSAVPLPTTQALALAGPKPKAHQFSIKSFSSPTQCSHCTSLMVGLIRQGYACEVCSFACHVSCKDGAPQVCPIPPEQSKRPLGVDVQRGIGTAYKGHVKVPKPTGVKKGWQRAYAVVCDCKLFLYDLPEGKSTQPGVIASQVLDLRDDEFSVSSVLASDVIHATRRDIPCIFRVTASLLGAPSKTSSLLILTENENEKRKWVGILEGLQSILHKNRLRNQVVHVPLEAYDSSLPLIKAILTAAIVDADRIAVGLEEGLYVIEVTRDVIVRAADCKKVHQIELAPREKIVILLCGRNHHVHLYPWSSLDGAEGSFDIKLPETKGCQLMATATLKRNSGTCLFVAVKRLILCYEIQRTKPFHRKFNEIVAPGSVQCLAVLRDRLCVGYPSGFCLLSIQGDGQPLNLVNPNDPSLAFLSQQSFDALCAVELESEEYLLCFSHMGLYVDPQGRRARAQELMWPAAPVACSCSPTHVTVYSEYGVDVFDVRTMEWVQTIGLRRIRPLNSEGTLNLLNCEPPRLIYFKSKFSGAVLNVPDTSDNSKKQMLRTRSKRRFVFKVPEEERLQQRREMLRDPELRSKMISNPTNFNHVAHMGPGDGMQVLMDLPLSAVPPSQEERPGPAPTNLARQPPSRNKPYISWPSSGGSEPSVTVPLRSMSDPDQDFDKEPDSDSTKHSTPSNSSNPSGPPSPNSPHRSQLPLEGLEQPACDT
# Description: as §2
# STK10 = molecular target: T15, STK10 (Homo sapiens, UniProt O94804); assay: nanoBRET off-target validation; format: cell-based
# T15 construct: host or cells: HEK293T (ATCC CRL-3216)
# T15 sequence (O94804 whole entry): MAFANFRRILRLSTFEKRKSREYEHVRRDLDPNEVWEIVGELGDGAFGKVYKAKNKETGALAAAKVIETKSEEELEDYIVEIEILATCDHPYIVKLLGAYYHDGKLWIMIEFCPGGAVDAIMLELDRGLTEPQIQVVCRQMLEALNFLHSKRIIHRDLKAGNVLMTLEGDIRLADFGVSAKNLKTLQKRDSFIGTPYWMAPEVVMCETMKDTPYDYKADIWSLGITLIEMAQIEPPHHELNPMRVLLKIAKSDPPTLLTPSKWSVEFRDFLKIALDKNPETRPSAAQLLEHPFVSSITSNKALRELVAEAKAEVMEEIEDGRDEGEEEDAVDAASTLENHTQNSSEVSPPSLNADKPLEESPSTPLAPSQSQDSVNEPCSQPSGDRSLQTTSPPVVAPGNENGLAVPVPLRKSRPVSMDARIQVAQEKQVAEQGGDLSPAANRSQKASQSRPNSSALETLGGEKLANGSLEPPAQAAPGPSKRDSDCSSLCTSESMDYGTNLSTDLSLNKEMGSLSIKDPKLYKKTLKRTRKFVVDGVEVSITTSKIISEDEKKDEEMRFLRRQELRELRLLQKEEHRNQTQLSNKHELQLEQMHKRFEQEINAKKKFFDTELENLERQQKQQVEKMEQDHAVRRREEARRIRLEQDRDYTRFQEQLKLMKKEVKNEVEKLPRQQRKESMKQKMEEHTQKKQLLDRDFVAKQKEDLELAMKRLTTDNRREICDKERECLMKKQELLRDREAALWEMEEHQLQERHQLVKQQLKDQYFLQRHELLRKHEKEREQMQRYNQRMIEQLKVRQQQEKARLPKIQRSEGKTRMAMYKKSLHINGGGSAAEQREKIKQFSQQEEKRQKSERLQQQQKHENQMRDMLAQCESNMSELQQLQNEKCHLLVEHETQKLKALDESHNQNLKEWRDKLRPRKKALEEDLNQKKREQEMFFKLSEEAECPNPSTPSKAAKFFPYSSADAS
# Description: The assay was performed as described previously ([61]). In brief, full-length kinases as listed in table S6 were obtained as plasmids cloned in frame with terminal NanoLuc-fusion (gift from Promega; table S6). […] Serially diluted inhibitor and corresponding tracer as listed in table S6 at the Tracer KD concentration taken from TracerDB (tracerdb.org) ([62]) were pipetted into white 384-well plates (Greiner, 781207) using an ECHO acoustic dispenser (Labcyte). The corresponding protein-transfected cells were added and reseeded at a density of 2 × 10^5 cells/ml after trypsinization and resuspending in Opti-MEM without phenol red (Life Technologies). The system was allowed to equilibrate for 3 hours at 37°C/5% CO2 before bioluminescence resonance energy transfer (BRET) measurements. To measure BRET, NanoBRET NanoGlo Substrate + extracellular NanoLuc Inhibitor (Promega, N2540) was added as per the manufacturer’s protocol, and filtered luminescence was measured on a PHERAstar plate reader (BMG Labtech) equipped with a luminescence filter pair [450-nm BP filter (donor) and 610-nm LP filter (acceptor)]. […] (For step-by-step protocol, see www.eubopen.org/sites/www.eubopen.org/files/attachments/2021/NanoBRET-IC50_v1_0.pdf.)
smiles,measurement,setting,value
Cc1ccc(C(=O)Nc2ccc(CN3CCN(C)CC3)c(C(F)(F)F)c2)cc1C#Cc1c[nH]c2ncnc(N3CCOCC3)c12 [Compound 1],dTm,[1],1.81 K
same,dTm,[2],-0.02 K
CCSc1nc(NC)c2c(-c3cccc(NC(=O)Nc4cc(C(C)(C)C)nn4-c4ccc(C)cc4)c3)c[nH]c2n1 [Compound 32],"Residual activity (% of control), CDC7/DBF4",350 wild-type kinases [3]; Assay Conc. 1.0E-05 M,50 % of control
same,"Residual activity (% of control), CDC7/DBF4",350 wild-type kinases [3]; Assay Conc. 1.0E-06 M,89 % of control
same,"Residual activity (% of control), ARAF YDYD",350 wild-type kinases [4]; Assay Conc. 1.0E-05 M,89 % of control
same,"Residual activity (% of control), ARAF YDYD",350 wild-type kinases [4]; Assay Conc. 1.0E-06 M,116 % of control
same,"Residual activity (% of control), CDK11B/CycK",350 wild-type kinases [5]; Assay Conc. 1.0E-05 M,99 % of control
same,"Residual activity (% of control), CDK11B/CycK",350 wild-type kinases [5]; Assay Conc. 1.0E-06 M,96 % of control
same,"Residual activity (% of control), CLK2",350 wild-type kinases [6]; Assay Conc. 1.0E-05 M,86 % of control
same,"Residual activity (% of control), CLK2",350 wild-type kinases [6]; Assay Conc. 1.0E-06 M,109 % of control
same,"Residual activity (% of control), CDK5/p25NCK",350 wild-type kinases [7]; Assay Conc. 1.0E-05 M,66 % of control
same,"Residual activity (% of control), CDK5/p25NCK",350 wild-type kinases [7]; Assay Conc. 1.0E-06 M,95 % of control
same,"Residual activity (% of control), CDK5/p35NCK",350 wild-type kinases [7]; Assay Conc. 1.0E-05 M,76 % of control
same,"Residual activity (% of control), CDK5/p35NCK",350 wild-type kinases [7]; Assay Conc. 1.0E-06 M,94 % of control
same,"Residual activity (% of control), CAMK2B",350 wild-type kinases [8]; Assay Conc. 1.0E-05 M,83 % of control
same,"Residual activity (% of control), CAMK2B",350 wild-type kinases [8]; Assay Conc. 1.0E-06 M,116 % of control
same,"Residual activity (% of control), CAMK2G",350 wild-type kinases [9]; Assay Conc. 1.0E-05 M,122 % of control
same,"Residual activity (% of control), CAMK2G",350 wild-type kinases [9]; Assay Conc. 1.0E-06 M,106 % of control
same,"Residual activity (% of control), CDK10/CycQ",350 wild-type kinases [10]; Assay Conc. 1.0E-05 M,71 % of control
same,"Residual activity (% of control), CDK10/CycQ",350 wild-type kinases [10]; Assay Conc. 1.0E-06 M,98 % of control
same,LRRK2 inhibition in the 33PanQinase screen,350 wild-type kinases [11],not detected as a LRRK2 inhibitor
same,"Residual activity (% of control), BRSK1",350 wild-type kinases [12]; Assay Conc. 1.0E-05 M,89 % of control
same,"Residual activity (% of control), BRSK1",350 wild-type kinases [12]; Assay Conc. 1.0E-06 M,101 % of control
same,"Residual activity (% of control), CLK4",350 wild-type kinases [13]; Assay Conc. 1.0E-05 M,43 % of control
same,"Residual activity (% of control), CLK4",350 wild-type kinases [13]; Assay Conc. 1.0E-06 M,80 % of control
same,"Residual activity (% of control), CDC42BPB",350 wild-type kinases [14]; Assay Conc. 1.0E-05 M,57 % of control
same,"Residual activity (% of control), CDC42BPB",350 wild-type kinases [14]; Assay Conc. 1.0E-06 M,84 % of control
same,nanoBRET response normalized to 0% (no tracer) and 100% (no inhibitor) control,"STK10; STK10, inhibitor 8 nM, two replicates, listed as RN341, 0.008 µM",93.5752%
same,remaining activity at 0.008 µM,"STK10; STK10, inhibitor 8 nM, two replicates, read-out: nanoBRET response normalized to 0% (no tracer) and 100% (no inhibitor) control",98.7%
same,nanoBRET response normalized to 0% (no tracer) and 100% (no inhibitor) control,"STK10; STK10, inhibitor 16 nM, two replicates, listed as RN341, 0.016 µM",98.653%
same,remaining activity at 0.016 µM,"STK10; STK10, inhibitor 16 nM, two replicates, read-out: nanoBRET response normalized to 0% (no tracer) and 100% (no inhibitor) control",95%
same,nanoBRET response normalized to 0% (no tracer) and 100% (no inhibitor) control,"STK10; STK10, inhibitor 50 nM, two replicates, listed as RN341, 0.05 µM",90.2983%
same,remaining activity at 0.05 µM,"STK10; STK10, inhibitor 50 nM, two replicates, read-out: nanoBRET response normalized to 0% (no tracer) and 100% (no inhibitor) control",93.4%
same,nanoBRET response normalized to 0% (no tracer) and 100% (no inhibitor) control,"STK10; STK10, inhibitor 250 nM, two replicates, listed as RN341, […]",75.9451%
same,remaining activity at […],"STK10; STK10, inhibitor 250 nM, two replicates, read-out: nanoBRET response normalized to 0% (no tracer) and 100% (no inhibitor) control",77.3%
same,nanoBRET response normalized to 0% (no tracer) and 100% (no inhibitor) control,"STK10; STK10, inhibitor 500 nM, two replicates, listed as RN341, 0.5 µM",59.4137%
same,remaining activity at 0.5 µM,"STK10; STK10, inhibitor 500 nM, two replicates, read-out: nanoBRET response normalized to 0% (no tracer) and 100% (no inhibitor) control",61.4%
same,nanoBRET response normalized to 0% (no tracer) and 100% (no inhibitor) control,"STK10; STK10, inhibitor 2500 nM, two replicates, listed as RN341, […]",44.5595%
same,remaining activity at […],"STK10; STK10, inhibitor 2500 nM, two replicates, read-out: nanoBRET response normalized to 0% (no tracer) and 100% (no inhibitor) control",60.9%
same,nanoBRET response normalized to 0% (no tracer) and 100% (no inhibitor) control,"STK10; STK10, inhibitor 5000 nM, two replicates, listed as RN341, 5 µM",40.1132%
same,remaining activity at 5 µM,"STK10; STK10, inhibitor 5000 nM, two replicates, read-out: nanoBRET response normalized to 0% (no tracer) and 100% (no inhibitor) control",58.5%
same,nanoBRET response normalized to 0% (no tracer) and 100% (no inhibitor) control,"STK10; STK10, inhibitor 25000 nM, two replicates, listed as RN341, 25 µM",8.0832%
same,remaining activity at 25 µM,"STK10; STK10, inhibitor 25000 nM, two replicates, read-out: nanoBRET response normalized to 0% (no tracer) and 100% (no inhibitor) control",6.79%
same,EC50,"STK10; in cellulo nanoBRET, 293T cells",< 5000 nM and 1500 nM
